What was measured:
Format in all cases: in vivo
Conditions in all cases: treatment dosage 320 g/ha
barnyard grass [1] = assay: Test Example 1: weedkilling efficacy, preemergent weed treatment in the submerged state; A: barnyard grass
Outline: (§1)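 Submerged pre-emergence treatment, water-surface application of compound emulsion at g/ha dosages; 4 cm flooded alluvial soil, weeds sown and 2.5-leaf rice transplanted same day. Rated after 3 weeks, greenhouse.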

bulrush [2] = assay: Test Example 1: weedkilling efficacy, preemergent weed treatment in the submerged state; B: bulrush
Outline: as §1

oval-leafed pondweed [3] = assay: Test Example 1: weedkilling efficacy, preemergent weed treatment in the submerged state; C: oval-leafed pondweed
Outline: as §1

transplanted rice = assay: Test Example 1: preemergent weed treatment in the submerged state, effect on crop; a: transplanted rice
Outline: as §1

barnyard grass [4] = assay: Test Example 2: weedkilling efficacy, growth period weed treatment in the submerged state; A: barnyard grass
Outline: (§2)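 Seedlings at 1-2 leaves in 4 cm-deep submerged alluvial soil received emulsion formulations on the water surface, dosed per hectare; effects were judged 3 weeks on.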

bulrush [5] = assay: Test Example 2: weedkilling efficacy, growth period weed treatment in the submerged state; B: bulrush
Outline: as §2

oval-leafed pondweed [6] = assay: Test Example 2: weedkilling efficacy, growth period weed treatment in the submerged state; C: oval-leafed pondweed
Outline: as §2

crabgrass [7] = assay: Test Example 3: weedkilling efficacy through soil treatment; D: crabgrass
Outline: (§3)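 Crop and weed responses were judged three weeks after a uniform surface spray of the water-diluted emulsion at the given g/ha rate. Seeds sat beneath about 1.5 cm of sterilized diluvial soil, and boxes stood in a greenhouse at 25 to 30° C.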

green foxtail [8] = assay: Test Example 3: weedkilling efficacy through soil treatment; E: green foxtail
Outline: as §3

barnyard grass [9] = assay: Test Example 3: weedkilling efficacy through soil treatment; F: barnyard grass
Outline: as §3

wild oat [10] = assay: Test Example 3: weedkilling efficacy through soil treatment; G: wild oat
Outline: as §3

black-grass [11] = assay: Test Example 3: weedkilling efficacy through soil treatment; H: black-grass
Outline: as §3

Italian ryegrass [12] = assay: Test Example 3: weedkilling efficacy through soil treatment; I: Italian ryegrass
Outline: as §3

common wind-grass [13] = assay: Test Example 3: weedkilling efficacy through soil treatment; J: common wind-grass
Outline: as §3

Indian mallow [14] = assay: Test Example 3: weedkilling efficacy through soil treatment; K: Indian mallow
Outline: as §3

redroot pigweed [15] = assay: Test Example 3: weedkilling efficacy through soil treatment; L: redroot pigweed
Outline: as §3

chickweed [16] = assay: Test Example 3: weedkilling efficacy through soil treatment; N: chickweed
Outline: as §3

catchweed [17] = assay: Test Example 3: weedkilling efficacy through soil treatment; O: catchweed
Outline: as §3

birds-eye speedwell [18] = assay: Test Example 3: weedkilling efficacy through soil treatment; p: birds-eye speedwell
Outline: as §3

directly sown rice [19] = assay: Test Example 3: soil treatment, effect on crop; b: directly sown rice
Outline: as §3

corn [20] = assay: Test Example 3: soil treatment, effect on crop; c: corn
Outline: as §3

soybean [21] = assay: Test Example 3: soil treatment, effect on crop; d: soybean
Outline: as §3

wheat [22] = assay: Test Example 3: soil treatment, effect on crop; e: wheat
Outline: as §3

beet [23] = assay: Test Example 3: soil treatment, effect on crop; f: beet
Outline: as §3

rapeseed [24] = assay: Test Example 3: soil treatment, effect on crop; g: rapeseed
Outline: as §3

crabgrass [25] = assay: Test Example 4: weedkilling efficacy by foliar treatment; D: crabgrass
Outline: (§4)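 Seeds are spot-sown into sterilized diluvial soil and covered with about 1.5 cm of soil. After 14 days' greenhouse growth at 25 to 30° C, plants are sprayed on stems and leaves with diluted emulsion at the stated g/ha rate, then scored at 3 weeks.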

green foxtail [26] = assay: Test Example 4: weedkilling efficacy by foliar treatment; E: green foxtail
Outline: as §4

barnyard grass [27] = assay: Test Example 4: weedkilling efficacy by foliar treatment; F: barnyard grass
Outline: as §4

wild oat [28] = assay: Test Example 4: weedkilling efficacy by foliar treatment; G: wild oat
Outline: as §4

black-grass [29] = assay: Test Example 4: weedkilling efficacy by foliar treatment; H: black-grass
Outline: as §4

Italian ryegrass [30] = assay: Test Example 4: weedkilling efficacy by foliar treatment; I: Italian ryegrass
Outline: as §4

common wind-grass [31] = assay: Test Example 4: weedkilling efficacy by foliar treatment; J: common wind-grass
Outline: as §4

Indian mallow [32] = assay: Test Example 4: weedkilling efficacy by foliar treatment; K: Indian mallow
Outline: as §4

redroot pigweed [33] = assay: Test Example 4: weedkilling efficacy by foliar treatment; L: redroot pigweed
Outline: as §4

fig-leafed goosefoot = assay: Test Example 4: weedkilling efficacy by foliar treatment; M: fig-leafed goosefoot
Outline: as §4

chickweed [34] = assay: Test Example 4: weedkilling efficacy by foliar treatment; N: chickweed
Outline: as §4

catchweed [35] = assay: Test Example 4: weedkilling efficacy by foliar treatment; O: catchweed
Outline: as §4

birds-eye speedwell [36] = assay: Test Example 4: weedkilling efficacy by foliar treatment; p: birds-eye speedwell
Outline: as §4

directly sown rice [37] = assay: Test Example 4: foliar treatment, effect on crop; b: directly sown rice
Outline: as §4

corn [38] = assay: Test Example 4: foliar treatment, effect on crop; c: corn
Outline: as §4

soybean [39] = assay: Test Example 4: foliar treatment, effect on crop; d: soybean
Outline: as §4

wheat [40] = assay: Test Example 4: foliar treatment, effect on crop; e: wheat
Outline: as §4

beet [41] = assay: Test Example 4: foliar treatment, effect on crop; f: beet
Outline: as §4

rapeseed [42] = assay: Test Example 4: foliar treatment, effect on crop; g: rapeseed
Outline: as §4

CC1=C(c2ccccc2)C(=O)N(C(C)(C)C(=O)Nc2cc(OC(F)F)ccn2)CO1 [B-2-64]
A (barnyard grass) weedkilling efficacy grade (barnyard grass [1]): 5 (weed kill ratio 90% or more, (practically complete withering)) | B (bulrush) weedkilling efficacy grade (bulrush [2]): 5 (weed kill ratio 90% or more, (practically complete withering)) | C (oval-leafed pondweed) weedkilling efficacy grade (oval-leafed pondweed [3]): 5 (weed kill ratio 90% or more, (practically complete withering)) | a (transplanted rice) effect on crop grade (transplanted rice): 4 (weed kill ratio 70% or more, less than 90%) | A (barnyard grass) weedkilling efficacy grade (barnyard grass [4]): 5 (weed kill ratio 90% or more, (practically complete withering)) | B (bulrush) weedkilling efficacy grade (bulrush [5]): 5 (weed kill ratio 90% or more, (practically complete withering)) | C (oval-leafed pondweed) weedkilling efficacy grade (oval-leafed pondweed [6]): 5 (weed kill ratio 90% or more, (practically complete withering)) | D (crabgrass) weedkilling efficacy grade (crabgrass [7]): 5 (weed kill ratio 90% or more, (practically complete withering)) | E (green foxtail) weedkilling efficacy grade (green foxtail [8]): 5 (weed kill ratio 90% or more, (practically complete withering)) | F (barnyard grass) weedkilling efficacy grade (barnyard grass [9]): 5 (weed kill ratio 90% or more, (practically complete withering)) | G (wild oat) weedkilling efficacy grade (wild oat [10]): 3 (weed kill ratio 40% or more, less than 70%) | H (black-grass) weedkilling efficacy grade (black-grass [11]): 5 (weed kill ratio 90% or more, (practically complete withering)) | I (Italian ryegrass) weedkilling efficacy grade (Italian ryegrass [12]): 5 (weed kill ratio 90% or more, (practically complete withering)) | J (common wind-grass) weedkilling efficacy grade (common wind-grass [13]): 5 (weed kill ratio 90% or more, (practically complete withering)) | K (Indian mallow) weedkilling efficacy grade (Indian mallow [14]): 3 (weed kill ratio 40% or more, less than 70%) | L (redroot pigweed) weedkilling efficacy grade (redroot pigweed [15]): 4 (weed kill ratio 70% or more, less than 90%) | N (chickweed) weedkilling efficacy grade (chickweed [16]): 4 (weed kill ratio 70% or more, less than 90%) | O (catchweed) weedkilling efficacy grade (catchweed [17]): 0 (weed kill ratio 5% or less (practically no effect)) | P (birds-eye speedwell) weedkilling efficacy grade (birds-eye speedwell [18]): 5 (weed kill ratio 90% or more, (practically complete withering)) | b (directly sown rice) effect on crop grade (directly sown rice [19]): 4 (weed kill ratio 70% or more, less than 90%) | c (corn) effect on crop grade (corn [20]): 1 (weed kill ratio 5% or more, less than 20%) | d (soybean) effect on crop grade (soybean [21]): 0 (weed kill ratio 5% or less (practically no effect)) | e (wheat) effect on crop grade (wheat [22]): 0 (weed kill ratio 5% or less (practically no effect)) | f (beet) effect on crop grade (beet [23]): 4 (weed kill ratio 70% or more, less than 90%) | g (rapeseed) effect on crop grade (rapeseed [24]): 3 (weed kill ratio 40% or more, less than 70%) | D (crabgrass) weedkilling efficacy grade (crabgrass [25]): 5 (weed kill ratio 90% or more, (practically complete withering)) | E (green foxtail) weedkilling efficacy grade (green foxtail [26]): 5 (weed kill ratio 90% or more, (practically complete withering)) | F (barnyard grass) weedkilling efficacy grade (barnyard grass [27]): 5 (weed kill ratio 90% or more, (practically complete withering)) | G (wild oat) weedkilling efficacy grade (wild oat [28]): 4 (weed kill ratio 70% or more, less than 90%) | H (black-grass) weedkilling efficacy grade (black-grass [29]): 5 (weed kill ratio 90% or more, (practically complete withering)) | I (Italian ryegrass) weedkilling efficacy grade (Italian ryegrass [30]): 5 (weed kill ratio 90% or more, (practically complete withering)) | J (common wind-grass) weedkilling efficacy grade (common wind-grass [31]): 5 (weed kill ratio 90% or more, (practically complete withering)) | K (Indian mallow) weedkilling efficacy grade (Indian mallow [32]): 4 (weed kill ratio 70% or more, less than 90%) | L (redroot pigweed) weedkilling efficacy grade (redroot pigweed [33]): 4 (weed kill ratio 70% or more, less than 90%) | M (fig-leafed goosefoot) weedkilling efficacy grade (fig-leafed goosefoot): 4 (weed kill ratio 70% or more, less than 90%) | N (chickweed) weedkilling efficacy grade (chickweed [34]): 4 (weed kill ratio 70% or more, less than 90%) | O (catchweed) weedkilling efficacy grade (catchweed [35]): 4 (weed kill ratio 70% or more, less than 90%) | P (birds-eye speedwell) weedkilling efficacy grade (birds-eye speedwell [36]): 4 (weed kill ratio 70% or more, less than 90%) | b (directly sown rice) effect on crop grade (directly sown rice [37]): 4 (weed kill ratio 70% or more, less than 90%) | c (corn) effect on crop grade (corn [38]): 0 (weed kill ratio 5% or less (practically no effect)) | d (soybean) effect on crop grade (soybean [39]): 4 (weed kill ratio 70% or more, less than 90%) | e (wheat) effect on crop grade (wheat [40]): 0 (weed kill ratio 5% or less (practically no effect)) | f (beet) effect on crop grade (beet [41]): 4 (weed kill ratio 70% or more, less than 90%) | g (rapeseed) effect on crop grade (rapeseed [42]): 4 (weed kill ratio 70% or more, less than 90%)
